Experimental data reported in paper doi:10.1101/2025.02.26.640323, “Aggregation-Dependent Epitope Sequence and Modification Fingerprints of Anti-Aβ Antibodies” (bioRxiv, 2025).
Entries after “also recorded” stand apart in the source; their conditions may differ.

Key:
synthetic Aβ peptides = assay: Peptide Bicine-Tris SDS-PAGE/Western blot; format: binding; settings: PVDF, 50 ng per peptide, 0.5 μg/mL antibody
[1] = test system: mixture of ten synthetic Aβ peptides; assay: IP-MS from mixture of ten synthetic Aβ peptides; format: binding; settings: TOPAC matrix, 10ng/mL each peptide
Aβ(−10–18) = assay: Deep mutational scans of 18-meric Aβ peptides on microarray; format: binding, human
[2] = test system: Aβ vascular and parenchymal deposits in AD brain sections; assay: Immunohistochemistry on AD brain tissue with antibody pre-adsorption; parameters: species or system human; settings: 1 μg Donanemabbs with 2.5 μg peptide; human AD brain
Description: Immunohistochemistry was performed on 4-μm paraffin sections. In brief, brain sections were deparaffinized in Roticlear (Carl Roth, Karlsruhe, Germany) and rehydrated in a descending series of ethanol. Activity of endogenous peroxidases was blocked by incubation in 0.3% H2O2 in PBS for 30 min. […] Antibodies and peptides were incubated on a rotator for 3 h at room temperature and reaction tubes were centrifuged at 13000 rpm for 5 min at the end of the incubation period. Control conditions included antibodies in 0.01 M PBS including 10% FCS without synthetic peptides. Adjacent paraffin-embedded sections from a human AD case were incubated overnight with the supernatants and sections were washed with 0.01 M PBS including 0.1 % Tergitol. For detection, biotinylated anti-human antibodies (6 μg/ml, Jackson ImmunoResearch, West Grove, Pennsylvania, USA #109-065-003) were used and staining was visualized with the ABC method with a Vectastain kit (Vector Laboratories, Newark, California, USA), diaminobenzidine as a chromogen and counterstaining with hematoxylin.

[3] = test system: PTM-carrying Aβ peptides (PTM-Aβ); assay: PTM-Aβ microarray, general; format: binding, human; settings: general statement
Description: Specific PTMs might be associated with different stages of AD progression and severity, offering potential biomarkers for diagnosis and prognosis. Targeting PTMs represents a potential therapeutic strategy to prevent Aβ aggregation and neurotoxicity, thereby slowing disease progression. […] Therefore, a selected group of PTM-carrying Aβ peptides (PTM-Aβ) were incorporated into the Aβ chip to explore the potential binding preference of selected Aβ-Abs, under optimized concentrations (Figure 3). The antibodies were tested with both PTM-Aβ and the corresponding unmodified variants to provide a head-to-head comparison. This screening was performed in the presence of Aβ phosphorylated at positions Ser(8) or Ser(26), N-terminal pE at position 3, racemization/isomerization of Asp at position 1, and unmodified N-terminal variants. The dataset is divided into sections (Figure 3 a–f) for enhanced visualization, where each antibody was screened simultaneously against all peptides to locate their epitope preferences. […] A set of antibodies without reported PTM preference was applied here as controls (refer to Table 1), namely 11H3, 101–1-1, IC16, 82E1 and 3D6.
Figure 3. […] Blue and red shades indicate the binding strength over the related arrayed […] modified peptide shown on top and cognate anti-Aβ antibody to the left. […]

Donanemabbs: humanized monoclonal, biosimilar of Donanemab, Proteogenix (#PX-TA1549)
Aβ variants detected on Bicine-Tris SDS-PAGE/Western blot (synthetic Aβ peptides): detected AβpE3–40 and Aβ3–40 | IP-MS signal of AβpE3–40 [1]: highly preferential binding | core motif / main contacts / epitope (Aβ(−10–18); 18-mer deep mutational scan, core position if >50% of exchanges reduce binding by >50%): EFRHDSGY | residue conservation at Asp(1) and Ala(2) (Aβ(−10–18); Aβ1–18 deep mutational scan): Asp(1) and Ala(2) were not highly conserved | IHC immunoreactivity after pre-adsorption with Aβ1–40 [2]: not suppressed | IHC immunoreactivity after pre-adsorption with Aβ3–40 [2]: not suppressed | IHC immunoreactivity after pre-adsorption with AβpE3–40 [2]: efficiently suppressed; also recorded: effectively attenuated | preference for PTMs [3]: exhibited the previously reported preferences for PTMs
